Our source for the IC50 values is the Kinase Knowledgebase extract (Sharma et al. 2016).

The experiment deals with MAPK14 (human) (UniProt Q16539). In words: Inhibition of MAPK14 by Human Whole Blood Assay. As to conditions: blood cells.

Broadly, the IC50 is the concentration that inhibits the measured activity by half.

Sequence of MAPK14 (human) (Q16539 whole entry, looked up): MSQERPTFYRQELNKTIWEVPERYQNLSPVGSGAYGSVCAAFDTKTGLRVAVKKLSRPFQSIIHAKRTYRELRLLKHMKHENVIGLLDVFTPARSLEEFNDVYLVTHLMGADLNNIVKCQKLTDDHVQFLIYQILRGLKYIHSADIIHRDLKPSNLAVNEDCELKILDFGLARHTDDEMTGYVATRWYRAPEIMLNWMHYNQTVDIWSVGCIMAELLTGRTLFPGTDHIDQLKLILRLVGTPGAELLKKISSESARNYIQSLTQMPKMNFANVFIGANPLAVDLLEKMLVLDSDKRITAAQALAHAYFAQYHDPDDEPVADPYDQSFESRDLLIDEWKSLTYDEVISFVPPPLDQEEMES

The compound `CCN(C(=O)c1ccc2occc2c1)c1ccnc(N[C@@H](C)c2ccccc2)n1` yielded an IC50 of less than 1 µM. In turn, `COC(=O)CN1CCC(CN(C(=O)c2ccc3c(c2)CCO3)c2ccnc(NC(C)C)n2)CC1` had an IC50 of less than 1 µM. In the case of `C[C@@H](Nc1cc(N(Cc2ccc(F)cc2)C(=O)c2ccc3ccccc3c2)ccn1)c1ccccc1` it was not above 1 µM; in that of `C[C@H](Nc1cc(N(Cc2ccc(F)cc2)C(=O)c2ccc3ccccc3c2)ncn1)c1ccccc1`, not above 1 µM; in that of `O=C(c1ccc2c(c1)CCC2)N(CC1CC1)c1ccnc(NC2CCC(O)CC2)n1` (stereo unspecified), less than 1 µM. Then `C[C@H](Nc1nccc(N(CC2CCNCC2)C(=O)c2ccc3c(c2)CCCC3)n1)c1ccccc1`, with less than 1 µM; and `CCN(C(=O)c1cccc(Cl)c1)c1ccnc(N[C@@H](C)c2ccccc2)n1`, with less than 1 µM; and `C[C@H](Nc1nccc(N(CC2CCNCC2)C(=O)c2ccc3ccccc3c2)n1)c1ccccc1`, with less than 1 µM.

`C[C@H](Nc1nccc(N(Cc2ccc(S(C)(=O)=O)cc2)C(=O)c2ccc3ccccc3c2)n1)c1ccccc1` returned an IC50 not above 1 µM. In turn, `C[C@H](Nc1nccc(N(CC2CCNCC2)C(=O)c2ccc3c(c2)CCC3)n1)c1ccccc1` came in with an IC50 of less than 1 µM. In the case of `CC(C)Nc1nccc(N(Cc2ccc(F)cc2)C(=O)c2ccc3ccccc3c2)n1`, the half-maximal inhibitory concentration (IC50) was not above 1 µM. In the case of `C[C@H](Nc1nccc(N(CC2CCNCC2)C(=O)c2cccc3ccccc23)n1)c1ccccc1` it was less than 1 µM. Then `CC(C)Nc1nccc(N(CC2CC2)C(=O)c2ccc3ccccc3c2)n1`, with less than 1 µM; and `CCN(C(=O)c1ccc2c(c1)CCO2)c1ccnc(N[C@@H](C)c2ccccc2)n1`, with not above 1 µM.

The compound `CCCN(C(=O)c1ccc2ccccc2c1)c1ccnc(NC(C)C)n1` returned an IC50 not above 1 µM. In the case of `CCC(Nc1cc(N(Cc2ccc(F)cc2)C(=O)c2ccc3ccccc3c2)ccn1)c1ccccc1` (stereo unspecified) it was not above 1 µM; in that of `O=C(c1ccc2c(c1)CCO2)N(CC1CCNCC1)c1ccnc(NC2CCC[C@@H]2O)n1` (stereo partly specified), less than 1 µM; in that of `CC(C)Nc1nccc(N(CC2CC[C@H](N)C2)C(=O)c2ccc3c(c2)CCO3)n1` (stereo partly specified), less than 1 µM. Then `C[C@H](Nc1nccc(N(C)C(=O)c2ccc3ccccc3c2)n1)c1ccccc1`, with not above 1 µM; and `CCN(C(=O)c1cccc(C(Cl)Cl)c1)c1ccnc(N[C@@H](C)c2ccccc2)n1`, with less than 1 µM.

Turning to `CCN(C(=O)c1ccc2ccccc2c1)c1ccnc(NC2CCNCC2)n1`, the concentration for half-maximal inhibition (IC50) is not above 1 µM. Compound `O=C(c1ccc2ccccc2c1)N(CC1CC1)c1ccnc(NC2CCC(O)CC2)n1` (stereo unspecified) yielded an IC50 of less than 1 µM. Then `CC(Nc1cc(N(Cc2ccc(F)cc2)C(=O)c2ccc3ccccc3c2)ccn1)c1ccc(F)cc1` (stereo unspecified), with not above 1 µM; and `CCN(C(=O)c1ccc2ccccc2c1)c1ccnc(NC2CCC(N)CC2)n1` (stereo unspecified), with less than 1 µM; and `O=C(c1ccc2ccccc2c1)N(Cc1ccc(F)cc1)c1ccnc(N[C@H]2CCc3ccccc32)c1`, with not above 1 µM. Then `Nc1cc(N(Cc2ccc(F)cc2)C(=O)c2ccc3ccccc3c2)ccn1`, with not above 1 µM; and `C[C@H](Nc1nccc(N(CC2CCN(C(N)=O)CC2)C(=O)c2ccc3c(c2)CCO3)n1)c1ccccc1`, with less than 1 µM. In the case of `COc1ccc([C@H](C)Nc2cc(N(Cc3ccc(F)cc3)C(=O)c3ccc4ccccc4c3)ccn2)cc1` it was not above 1 µM. With `C[C@H](Nc1nccc(N(Cc2cccnc2)C(=O)c2ccc3ccccc3c2)n1)c1ccccc1`, the IC50 is not above 1 µM. In the case of `C[C@H](Nc1cc(N(Cc2ccccc2)C(=O)c2ccc3ccccc3c2)ccn1)c1ccccc1` it was not above 1 µM.

Take `C[C@H](Nc1cc(N(Cc2ccc(F)cc2)C(=O)c2ccc3ccccc3c2)ccn1)c1ccc2ccccc2c1`: the IC50 is not above 1 µM.

`CCC(C)Nc1nccc(N(CC2CCNCC2)C(=O)c2ccc3c(c2)CCO3)n1` (stereo unspecified): the IC50 is less than 1 µM. In the case of `CCN(C(=O)c1cccc2c1OCCO2)c1ccnc(N[C@@H](C)c2ccccc2)n1` it was less than 1 µM; in that of `CC(=O)N(Cc1ccc(F)cc1)c1ccnc(N[C@@H](C)c2ccccc2)c1`, not above 1 µM; in that of `O=C(c1ccc2ccccc2c1)N(Cc1ccc(F)cc1)c1ccnc(NC(c2ccccc2)c2ccccc2)c1`, not above 1 µM.

For the compound `O=C(c1ccc2ccccc2c1)N(Cc1ccc(F)cc1)c1ccnc(NC2CCCCC2)c1`, the IC50 is not above 1 µM.

On to `COCCNc1nccc(N(CC2CCNCC2)C(=O)c2ccc3c(c2)CCO3)n1`, for which the IC50 was less than 1 µM.

In turn, `CCN(C(=O)c1ccc2ccccc2c1)c1ccnc(N[C@@H](C)c2ccccc2)n1` showed a concentration for half-maximal inhibition (IC50) not above 1 µM.

In the case of `CCCN(C(=O)c1ccc2ccccc2c1)c1ccnc(N[C@@H](C)c2ccccc2)n1`, the concentration for half-maximal inhibition (IC50) was not above 1 µM. Take `CC(C)Nc1nccc(N(C(=O)c2ccc3ccccc3c2)C(C)C)n1`: the IC50 was not above 1 µM.

For `COCCN(C(=O)c1ccc2c(c1)CCC2)c1ccnc(N[C@@H](C)c2ccccc2)n1`, the concentration for half-maximal inhibition (IC50) is less than 1 µM. `C[C@H](Nc1nccc(N(CC2CC2)C(=O)c2ccc3c(c2)CCO3)n1)c1ccccc1`: the 50% inhibitory concentration (IC50) was less than 1 µM. In turn, `C[C@H](Nc1nccc(N(CCCCN)C(=O)c2ccc3c(c2)CCO3)n1)c1ccccc1` yielded an IC50 of less than 1 µM.

In turn, `O=C(c1ccc2ccccc2c1)N(Cc1ccc(F)cc1)c1ccnc(NCCN2CCOCC2)c1` returned an IC50 not above 1 µM. Then `CC1CCCCC1Nc1nccc(N(CC2CCNCC2)C(=O)c2ccc3c(c2)CCO3)n1` (stereo unspecified), with less than 1 µM. Then `C[C@H](Nc1nccc(N(C(=O)c2ccc3ccccc3c2)C2CC(C)(C)NC(C)(C)C2)n1)c1ccccc1`, with less than 1 µM; and `CC(C)Nc1nccc(N(CCCCN2CCCC2)C(=O)c2ccc3c(c2)CCO3)n1`, with less than 1 µM; and `CCN(C(=O)c1cccc(C)c1C)c1ccnc(N[C@@H](C)c2ccccc2)n1`, with less than 1 µM. Compound `CC(Nc1cc(N(Cc2ccc(F)cc2)C(=O)c2ccc3ccccc3c2)ccn1)c1ccc(Cl)cc1` (stereo unspecified) registered a 50% inhibitory concentration (IC50) not above 1 µM. In the case of `COCC(C)Nc1nccc(N(CCCCN)C(=O)c2ccc3c(c2)CCO3)n1` (stereo unspecified) it was less than 1 µM; in that of `COCCN(C(=O)c1cccc(C)c1C)c1ccnc(N[C@@H](C)c2ccccc2)n1`, less than 1 µM. In turn, `COC(=O)c1ccc(CNc2cc(N(Cc3ccc(F)cc3)C(=O)c3ccc4ccccc4c3)ccn2)cc1` yielded an IC50 not above 1 µM.

Consider `COCCCNc1nccc(N(CC2CCNCC2)C(=O)c2ccc3c(c2)CCO3)n1`, for which the IC50 is less than 1 µM. Then `C[C@H](Nc1nccc(N(Cc2ccc(F)cc2)C(=O)c2ccc3ccccc3c2)n1)c1ccccc1`, with not above 1 µM; and `CC(C)Nc1nccc(N(C)C(=O)c2ccc3ccccc3c2)n1`, with not above 1 µM.

For the compound `O=C(c1ccc2ccccc2c1)N(CC1CCNCC1)c1ccnc(NC2CCOCC2)n1`, the IC50 was less than 1 µM. Then `CC(C)(C)CNc1nccc(N(CC2CCNCC2)C(=O)c2ccc3c(c2)CCO3)n1`, with less than 1 µM; and `C[C@H](Nc1nccc(N(CC2CCNC2)C(=O)c2ccc3c(c2)CCO3)n1)c1ccccc1` (stereo partly specified), with less than 1 µM; and `CCC(COC)Nc1nccc(N(CC2CCNCC2)C(=O)c2ccc3c(c2)CCO3)n1` (stereo unspecified), with less than 1 µM. In the case of `CCN(C(=O)c1cccc(C)c1)c1ccnc(N[C@@H](C)c2ccccc2)n1` it was less than 1 µM. In the case of `COCCN(C(=O)c1ccc2ccccc2c1)c1ccnc(NC(C)C)n1` it was not above 1 µM. Take `CC(C)Nc1nccc(N(CCC[C@@H](N)C(=O)N(C)C)C(=O)c2ccc3c(c2)CCO3)n1`: the IC50 was less than 1 µM.

`C[C@H](Nc1nccc(N(C(=O)c2ccc3ccccc3c2)C2CCN(C(=O)OC(C)(C)C)CC2)n1)c1ccccc1` had an IC50 of less than 1 µM. Then `CCN(C(=O)c1scc2c1CCCC2)c1ccnc(N[C@@H](C)c2ccccc2)n1`, with less than 1 µM. Then `CC(C)N(C(=O)c1ccc2ccccc2c1)c1ccnc(N[C@@H](C)c2ccccc2)n1`, with not above 1 µM. In the case of `CC(C)Nc1cc(N(Cc2ccc(F)cc2)C(=O)c2ccc3ccccc3c2)ccn1` it was not above 1 µM; in that of `CCN(C(=O)c1ccc2nccnc2c1)c1ccnc(N[C@@H](C)c2ccccc2)n1`, not above 1 µM.

In turn, `CCN(C(=O)c1cccc2c1OCC2)c1ccnc(N[C@@H](C)c2ccccc2)n1` gave an IC50 of less than 1 µM. In the case of `C[C@H](Nc1nccc(N(C(=O)c2ccc3ccccc3c2)C2CCNCC2)n1)c1ccccc1` it was not above 1 µM. In the case of `CCN(C(=O)c1ccc2snnc2c1)c1ccnc(N[C@@H](C)c2ccccc2)n1` it was not above 1 µM. In the case of `CCN(C(=O)c1cccc(Cl)c1C)c1ccnc(N[C@@H](C)c2ccccc2)n1` it was less than 1 µM; in that of `C[C@H](Nc1nccc(N(CC2CCN(C3CCCC3)CC2)C(=O)c2ccc3c(c2)CCO3)n1)c1ccccc1`, less than 1 µM; in that of `CC(C)Nc1nccc(N(CCCCN)C(=O)c2ccc3c(c2)CCO3)n1`, less than 1 µM. As for `C[C@H](Nc1cc(N(C)C(=O)N2CCc3ccccc3C2)ccn1)c1ccccc1`, the IC50 was not above 1 µM.

Regarding `O=C(c1ccc2c(c1)CCO2)N(CC1CCNCC1)c1ccnc(NC2CCCC2)n1`, the concentration for half-maximal inhibition (IC50) is less than 1 µM. `CC(C)Nc1nccc(N(CC2CCNCC2)C(=O)c2ccc3c(c2)CCO3)n1`: the IC50 was less than 1 µM. In the case of `O=C(c1ccc2ccccc2c1)N(Cc1ccc(F)cc1)c1ccnc(NC2CCN(Cc3ccccc3)CC2)c1` it was not above 1 µM. For `CC(C)C(C)Nc1nccc(N(CC2CCNCC2)C(=O)c2ccc3c(c2)CCO3)n1` (stereo unspecified), the IC50 is less than 1 µM. As to `O=C(c1ccc2ccccc2c1)N(Cc1ccc(F)cc1)c1ccnc(N[C@H]2CCCc3ccccc32)c1`, the 50% inhibitory concentration (IC50) is not above 1 µM.

Turning to `CCN(C(=O)c1ccc2c(c1)CCC2)c1ccnc(N[C@@H](C)c2ccccc2)n1`, the IC50 is less than 1 µM. Then `C[C@H](Nc1cc(N(Cc2ccc(F)cc2)C(=O)c2cccs2)ccn1)c1ccccc1`, with not above 1 µM; and `COCCN(C(=O)c1ccc2ccccc2c1)c1ccnc(N[C@@H](C)c2ccccc2)n1`, with not above 1 µM. In the case of `CC(C)Nc1nccc(N(CCCCCN)C(=O)c2ccc3c(c2)CCO3)n1` it was less than 1 µM. In the case of `CCc1cccc(C(=O)N(CC)c2ccnc(N[C@@H](C)c3ccccc3)n2)c1` it was less than 1 µM; in that of `C[C@H](Nc1nccc(N(CC2CCNCC2)C(=O)c2ccc3c(c2)CCO3)n1)c1ccccc1`, less than 1 µM.

As for `C[C@H](Nc1nccc(N(CC2CCNCC2)C(=O)c2sc3ccccc3c2Cl)n1)c1ccccc1`, the 50% inhibitory concentration (IC50) is less than 1 µM.
